{"source": "ChEMBL document CHEMBL1201862", "about": "“PubChem BioAssay data set” (2004)", "target": "Envelope glycoprotein gp160 (Human immunodeficiency virus 1, UniProt Q6QLK5)", "sequence (Q6QLK5 whole entry, the tested form may be a part)": "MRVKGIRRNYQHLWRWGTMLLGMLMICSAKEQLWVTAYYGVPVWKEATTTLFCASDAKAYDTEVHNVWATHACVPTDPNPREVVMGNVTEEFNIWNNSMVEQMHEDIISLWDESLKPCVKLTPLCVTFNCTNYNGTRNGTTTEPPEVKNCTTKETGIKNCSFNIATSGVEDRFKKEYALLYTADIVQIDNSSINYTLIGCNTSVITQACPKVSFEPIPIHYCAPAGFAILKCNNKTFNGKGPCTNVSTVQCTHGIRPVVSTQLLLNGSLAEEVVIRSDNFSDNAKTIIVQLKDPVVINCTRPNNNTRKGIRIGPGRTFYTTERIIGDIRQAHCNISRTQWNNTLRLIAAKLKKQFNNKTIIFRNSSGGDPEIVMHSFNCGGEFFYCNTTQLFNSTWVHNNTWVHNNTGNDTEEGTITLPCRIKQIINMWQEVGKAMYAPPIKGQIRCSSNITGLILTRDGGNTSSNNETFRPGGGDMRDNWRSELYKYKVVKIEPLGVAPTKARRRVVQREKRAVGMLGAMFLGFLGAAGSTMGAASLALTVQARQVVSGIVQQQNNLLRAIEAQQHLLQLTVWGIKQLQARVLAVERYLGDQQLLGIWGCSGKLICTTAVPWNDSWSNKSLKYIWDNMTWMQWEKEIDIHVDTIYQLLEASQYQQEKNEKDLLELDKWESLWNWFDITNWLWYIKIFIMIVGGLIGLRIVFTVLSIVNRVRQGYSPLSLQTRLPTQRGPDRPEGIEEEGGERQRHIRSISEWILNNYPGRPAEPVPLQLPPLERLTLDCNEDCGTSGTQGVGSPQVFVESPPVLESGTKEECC", "assay": "inhibitors of HIV fusion peptide binding, primary screen, biochemical, uHTS, fluorescence dequenching (AID 1986)", "note": "Active and inactive are the calls of the source. No stated cut-off is given here; in the data, actives have a measured IC50 and inactives only a lower limit."}
{"compound": "Cc1cccc(S(=O)(=O)Nc2nc3ccccc3nc2Nc2cccc(C(=O)O)c2)c1", "values": [{"measurement": "IC50", "result": "29 µM (active)"}]}
{"compound": "O=C(O)c1[nH]c2ccccc2c1C(c1cccc(O)c1)c1c(C(=O)O)[nH]c2ccccc12", "values": [{"measurement": "IC50", "result": "25.8 µM (active)"}]}
